# According to patent US20080287371A1, “MACROCYCLIC ANTAGONISTS OF THE MOTILIN RECEPTOR FOR MODULATION OF THE MIGRATING MOTOR COMPLEX” (Tranzyme Pharma Inc., priority 2007, published 2008):
# Entries after “also recorded” stand apart in the source; their conditions may differ.
# How the values were obtained:
# [1] = test system: migrating motor complex (MMC); experiment: Strain gauge animal model (Method F): migrating motor complex in fasted dogs; type: in vivo, beagle dogs; conditions: for effect on the migrating motor complex (MMC): fasted beagle dogs
# Experimental: (§1) Gastrointestinal motility was measured for 24 hours by telemetry in freely moving beagle dogs instrumented with strain gauges on both the antrum and duodenum. The method utilized for the strain gauges was based upon that in the literature. (Edelbroek, M.; Schuurkes, J.; De Ridder, W.; Horowitz, M.; Dent, J.; Akkermans, L. Dig. Dis. Sci. 1995, 40, 901-911; Briejer, M. R.; Prins, N. H.; Schuurkes, J. A. Neurogastroenterol. Motil. 2001 13, 465-472.) Analogous methods that can be used are known. (Dog: Itohb, Z.; Honda, R.; Takeuchi, S.; Aizawa, I.; Takayanagi, R. Gastroenterol. Jpn. 1977, 12, 275-283; Iwai, T.; Nakamura, H.; Takanashi, H.; et al. Can. J. Physiol. Pharmacol. 1998, 76, 1103-1109; Dog and guinea pig, Ohno, T.; Kamiyama, Y.; Aihara, R.; Nakabayashi, T.; Mochiki, E.; Asao, T.; Kuwano, H. Neurogastroenterol. Motil. 2006, 18, 129-135; Rat: Bunce, K. T.; Elswood, C. J.; Ball, M. T. Br. J. Pharmacol. 1991, 102, 811-816; Guinea pig: Cooke, H. J.; Wang, Y. Z.; Frieling, T.; Wood, J. D. Am. J. Physiol. 1991, 261, G833-G840.)
# Calibrated strain gauges (Schuurkes, J. A. J.; Van der Schee, E. J.; Grashuis, J. L.; Charbon, G. R. A. in Gastrointestinal Motility in Health and Disease; Duthie, H. L., Ed., MTP Press, Lancaster (UK), 1978, pp 647-654) and bipolar extracellular electrodes were implanted under aseptic conditions in each of four female beagle dogs. (Bass, P.; Wiley, J. N. J. Appl. Physiol. 1972, 32, 567-570.) The strain gauges were sutured onto the seromuscular layer parallel to the axis of the circular muscle, on the distal antrum (3 cm orad to the distal pyloric loop), proximal duodenum (3 cm and 6 cm aborad to the pylorus) and distal pyloric muscle loop. The bipolar extracellular electrodes were implanted onto the scrosal side of the distal antrum and proximal duodenum 2 cm orad and aborad to the pylorus. The lead wires were brought out via a subcutaneous tunnel in the left costal flank through a stab wound between the scapulae. Postsurgically, the lead wires were soldered to the connectors and protected appropriately.
# In the same surgical incision, a gastrostomy and duodenostomy were performed. The gastrostomy was situated anteriorly in the midventral region between the lesser and greater curvature 2 cm orad to the nerve of Latarget and kept patent with a stainless steel cannula (internal diameter 1.4 cm, length 7.0 cm). The duodenostomy was situated 10 cm aborad to the pylorus and was kept patent with a cannula of smaller diameter (internal diameter 0.9 cm, length 7.5 cm). A thin tubing (outer diameter 2.2 mm) was pulled across the pylorus and attached to the caps of the gastric and duodenal cannulae in order to facilitate placement of the manometric assembly postsurgically. The greater omentum was wrapped around the cannulae to secure positioning and then the cannulae were tightly capped between experiments to permit normal feeding. Dogs were allowed to recover for at least two weeks prior to conduct of any experiments.
# Intraluminal pressures were recorded with a manometric assembly incorporating a sleeve sensor with a 4.8 cm length (outer diameter 5.4 mm) to monitor pyloric pressure waves. (Dent, J. Gastroenterology 1976, 71, 263-267.) Four side holes were spaced at 1.6-cm intervals along the sleeve length. Side holes at each end of the sleeve were used to measure antral and duodenal pressures and transmucosal potential difference (TMPD) simultaneously. (Arndorfer, R. C.; Stef, J. J.; Doss, W. J.; Linehan, J. H.; Hogan, W. J. Gastroenterol. 1977, 73, 23-27.) Two additional side holes were placed 3.3 and 1.6 cm orad to the proximal end of the sleeve (antral sites) and another two side holes were placed 1.6 and 3.3 cm aborad to the distal end of the sleeve (duodenal sites). All channels were perfused with degassed distilled water at 0.3 mL/min, except for the side holes used to measure the antroduodenal TMPD, which were perfused with saline. […]
# [2] = test system: post-prandial gastrointestinal activity; experiment: Strain gauge animal model (Method F): post-prandial gastrointestinal activity in fed dogs; type: in vivo, beagle dogs
# Experimental: as §1, with “G833-G840.) […]” for “G833-G840.)”
# Intraluminal pressures were recorded with a manometric assembly incorporating a sleeve sensor with a 4.8 cm length (outer diameter 5.4 mm) to monitor pyloric pressure waves. […]
# [3] = test system: fundic tone / gastric accommodation; experiment: Animal model of fundic accommodation (Method E, barostat, milk meal); type: in vivo, Beagle dogs
# Experimental: Fundic accommodation in response to a 200 mL milk meal was measured using a barostat. This can be considered as a model for functional dyspepsia, at least some occurrences of which is known to be a result of poor gastric accommodation (Tack, J.; Piessevaux, H.; Coulie, B.; Caenepeel, P.; Janssens, J. Gastroenterology 1998, 115, 1346-1352; DiStefano, M.; Micelli, E.; Mazzocchi, S.; Tana, P.; Corazza, G. R. Eur. Rev. Med. Pharmacol. Sci. 2005, 9, 23-28; Kindt, S.; Tack, J. Gut 2006, 55, 1685-1691; van den Elzen, B. D.; Boeckxstaens, G. E. Aliment. Pharmacol. Ther. 2006, 23, 1499-1510.). The described method is based upon a literature method. (Meulemans A. Schuurkes J. Neurogastroenterol. Motil. 1995, 7, 151-155.) The use of gallbladder volume has been linked to the motilin effect in functional dyspepsia and also can be used as a biomarker to test the effect of an antagonist on FD in humans. (Kamerling, I. M. C.; Van Haarst, A. D.; De Kam, M. L.; Cohen, A. F.; Masclee, A. A. M.; Burggraaf, J. Aliment, Pharmacol. Ther. 2004, 19, 797-804.) Other methods can also be utilized for this assessment and have been reviewed. (DeSchepper, H. U.; Cremonini, F.,; Chitkara, D.; Camilleri, M. Neurogastroenterol. Motil. 2004, 16, 275-285.) The dog is often used as an appropriate model for GI diseases due to the similarity in the alimentary tracts between dogs and humans. Additionally, the dog motilin receptor has been identified and characterized with the expression profile determined. It shares 71% homology to the human receptor and 72% to the rabbit receptor. (Ohshiro, H.; Nonaka, M.; Ichikawa, K. Regul. Pept. 2008, 146, 80-87.)
# Beagle dogs were trained to stand quietly in Pavlov frames. Each was implanted using the following procedure with a gastric and duodenal cannula under general anesthesia with standard aseptic precautions. After a medium laparotomy, an incision was made through the gastric wall in the longitudinal direction between the greater and the lesser curvature, 2 cm above the nerves of Latarjet. The gastric cannula (diameter 18 mm) was secured to the gastric wall by means of an appropriate suture and then brought out via a stab wound at the left quadrant of the hypochondrium. The duodenal cannula (diameter 4 mm) was implanted at about 12 cm distal to the pylorum. An incision of approximately 1 cm was made through the duodenal wall 3 cm distally from the site of implantation. The cannula was brought into the duodenum though this incision. The top of the cannula was brought out of the duodenal wall at the place of implantation and secured to the wall via suture. Afterwards, the duodenum was closed and the duodenal cannula was brought out via a stab wound at the right quadrant of the hypochondrium. Dogs were allowed a recovery period of 2 weeks during which they were treated with antibiotics.
# Variations in gastric tone were measured by recording changes in the volume of air within an intragastric bag maintained at constant pressure (6 mm Hg) by a barostat. The barostat consists of an air injection system which is connected by a double-lumen polyvinyl tube to an ultrathin flaccid polyethylene bag with maximum volume of approximately 700 mL. Gastric tonic contractions cause the barostat to withdraw air to maintain the pressure, while relaxation triggers air injection to maintain pressure. In that manner, intrabag volume is an inverse measure of proximal gastric tone. Differences in gastric tone were recorded using a computer. […]
# MMC = conditions: dog; cited from earlier work
SMILES,"effect on the migrating motor complex (MMC) ([1]; 0.30 mg/kg, i.v.)","contraction amplitude (CA), % of baseline CA ([1]; 1.0 mg/kg i.v., after 4 h)","contraction amplitude (CA), % of baseline CA ([1]; 1.0 mg/kg i.v., over the first hour)","time to first MMC ([1]; 1.0 mg/kg i.v., controls 99±15 min, P<0.01, n=4, mean±SEM)","effect on the migrating motor complex (MMC) ([1]; 1 mg/kg, i.v., N=6)","phase III activity of the MMC ([1]; 0.10, 0.30, 1.0 mg/kg, i.v., after overnight fast)","time until CA returned to baseline levels ([1]; 0.10 and 0.30 mg/kg doses, n=2)","post-prandial CA, % of pre-drug baseline ([2]; 0.30 mg/kg i.v., 2 h after standard 75 g meal, during first hour, n=2, vehicle 106±10%)","post-prandial activity ([2]; 0.30 mg/kg, i.v., fed dogs)","gastric accommodation in response to the meal ([3]; 0.30 mg/kg i.v. bolus, continuous motilin infusion)","effect on motilin-induced fundic contraction ([3]; 0.30 mg/kg i.v., exogenous motilin 0.010 mg/kg/h i.v.)","AUC of fundic relaxation (0-to-5 min.) ([3]; 0.30 mg/kg i.v., motilin infusion 0.010 mg/kg/h i.v., milk meal, vehicle 18.7±3.3, n=4, p<0.05)","natural relaxation of the stomach in response to a meal (baseline, no motilin) ([3]; 0.1, 0.3 and 1.0 mg/kg, i.v., preliminary experiment)","motilin-induced increase in fundic tone, dose dependence ([3]; FIG. 3, cross-over design, N=6 dogs)",effect on the MMC (MMC)
CC(C)[C@H]1NC(=O)[C@@H](Cc2cccc(C(F)(F)F)c2)NCCOc2ccccc2CCCNC(=O)[C@H](CN(C)C)NC1=O [Compound 502],lesser delay of MMCs,52±21%,5±2%,225 ± 31 min,delay the migrating motor complex (MMC),suppressed the regular occurrence of phase III activity of the MMC in a dose-dependent manner,3 h,58±4%,briefly attenuate post-prandial activity,improved gastric accommodation,antagonized the effects of exogenous motilin; also recorded: antagonized the fundic contraction induced by infusion of exogenous motilin,27.3 ± 3.5 mL/h,did not disturb this baseline phenomenon,prevented this increase in a dose-dependent manner,–
Cc1[nH]cnc1CN1CCc2c(c3ccccc3n2C)C1=O [Alosetron],–,–,–,–,–,–,–,–,–,–,–,–,–,–,block the MMC
